# Calls of active or inactive are those of the source. No cut-off for these calls is given here.
# Assays:
# Neuron [1] = test: Neuroplasticity effect in Wistar rat brain cortical neuron assessed as increase in neurite outgrowth at 0.25 to 10 uM after 72 hrs; format: functional, cell-based; settings: dose 0.25-10 µM
# [2] = target: T1, Muscarinic acetylcholine receptor M1 (Homo sapiens) (UniProt P11229); test: Antagonist activity at recombinant human M1 receptor expressed in CHO-K1 cells incubated for 15 mins in presence of acetylcholine by aequorin assay; format: functional, cell-based
# T1 sequence (whole entry): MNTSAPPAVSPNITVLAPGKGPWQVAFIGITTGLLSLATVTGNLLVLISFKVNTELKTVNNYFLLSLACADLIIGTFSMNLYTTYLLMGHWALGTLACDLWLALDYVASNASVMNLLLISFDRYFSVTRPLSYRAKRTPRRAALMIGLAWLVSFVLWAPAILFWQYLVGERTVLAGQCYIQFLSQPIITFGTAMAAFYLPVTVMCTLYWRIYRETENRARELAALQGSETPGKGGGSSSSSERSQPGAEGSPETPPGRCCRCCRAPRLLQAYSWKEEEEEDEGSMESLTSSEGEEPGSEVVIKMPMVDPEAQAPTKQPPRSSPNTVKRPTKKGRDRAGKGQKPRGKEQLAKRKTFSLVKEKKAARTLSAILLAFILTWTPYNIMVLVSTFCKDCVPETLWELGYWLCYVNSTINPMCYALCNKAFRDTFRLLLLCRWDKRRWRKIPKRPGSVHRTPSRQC
# Neuron [3] = test: Cytotoxicity against Wistar rat brain cortical neurons assessed as decrease in average number of neurites per neuron at 0.25 to 10 uM; format: toxicity, cell-based; settings: dose 0.25-10 µM
# [4] = target: T2, 5-hydroxytryptamine receptor 2C (Homo sapiens) (UniProt P28335); test: Antagonist activity at recombinant human 5HT2CR expressed in CHO-K1 cells incubated for 60 mins in presence of alpha-Me-5HT by HTRF method; format: functional, cell-based
# T2 sequence (whole entry): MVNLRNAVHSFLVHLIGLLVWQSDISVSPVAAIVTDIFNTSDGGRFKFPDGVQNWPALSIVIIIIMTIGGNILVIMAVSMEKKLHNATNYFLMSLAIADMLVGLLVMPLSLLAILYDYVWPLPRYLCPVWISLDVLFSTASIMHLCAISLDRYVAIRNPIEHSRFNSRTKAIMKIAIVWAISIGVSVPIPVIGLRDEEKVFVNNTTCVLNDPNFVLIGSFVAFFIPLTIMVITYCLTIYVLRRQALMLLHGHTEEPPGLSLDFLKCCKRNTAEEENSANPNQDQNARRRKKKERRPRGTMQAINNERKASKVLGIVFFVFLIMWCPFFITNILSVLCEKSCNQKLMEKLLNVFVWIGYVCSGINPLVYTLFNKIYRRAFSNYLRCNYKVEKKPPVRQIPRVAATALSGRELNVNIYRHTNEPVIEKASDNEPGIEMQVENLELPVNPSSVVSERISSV
# Neuron [5] = test: Neuroplasticity effect in Wistar rat brain cortical neuron assessed as increase in neurite outgrowth after 72 hrs; format: functional, cell-based; settings: dose 0.25-10 µM
# [6] = target: T3, Muscarinic acetylcholine receptor M4 (Homo sapiens) (UniProt P08173); test: Agonist activity at M4 receptor (unknown origin) by GTPgamma[35S] based Topcount scintillation counting method; format: functional
# T3 sequence (whole entry): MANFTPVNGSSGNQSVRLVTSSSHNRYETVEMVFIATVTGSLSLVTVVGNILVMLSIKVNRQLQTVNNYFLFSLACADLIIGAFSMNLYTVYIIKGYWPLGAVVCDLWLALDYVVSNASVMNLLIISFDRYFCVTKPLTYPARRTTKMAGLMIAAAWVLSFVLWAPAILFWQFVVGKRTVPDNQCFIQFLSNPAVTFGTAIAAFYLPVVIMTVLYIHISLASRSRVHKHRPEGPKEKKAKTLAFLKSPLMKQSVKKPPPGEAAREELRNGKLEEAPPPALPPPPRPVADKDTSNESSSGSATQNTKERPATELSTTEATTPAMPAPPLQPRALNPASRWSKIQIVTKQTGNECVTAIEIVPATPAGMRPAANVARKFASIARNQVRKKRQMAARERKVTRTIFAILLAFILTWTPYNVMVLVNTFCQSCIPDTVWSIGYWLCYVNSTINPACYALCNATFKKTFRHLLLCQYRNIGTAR
# [7] = target: T4, Muscarinic acetylcholine receptor M2 (Homo sapiens) (UniProt P08172); test: Agonist activity at M2 receptor (unknown origin) by GTPgamma[35S] based Topcount scintillation counting method; format: functional
# T4 sequence (whole entry): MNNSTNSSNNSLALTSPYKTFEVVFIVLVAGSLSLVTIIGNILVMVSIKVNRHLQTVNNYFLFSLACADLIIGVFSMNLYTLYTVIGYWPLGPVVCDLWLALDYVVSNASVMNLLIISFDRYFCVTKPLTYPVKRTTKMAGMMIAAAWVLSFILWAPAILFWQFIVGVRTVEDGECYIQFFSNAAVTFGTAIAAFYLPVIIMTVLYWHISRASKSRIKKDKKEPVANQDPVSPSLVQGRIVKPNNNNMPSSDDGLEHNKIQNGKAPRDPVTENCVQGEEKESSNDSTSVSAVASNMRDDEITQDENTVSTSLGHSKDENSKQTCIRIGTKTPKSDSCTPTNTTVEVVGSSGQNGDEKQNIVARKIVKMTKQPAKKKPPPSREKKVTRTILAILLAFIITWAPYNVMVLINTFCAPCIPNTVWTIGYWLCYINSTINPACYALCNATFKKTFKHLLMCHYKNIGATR
# [8] = target: 5-hydroxytryptamine receptor 2A (Homo sapiens) (UniProt P28223); test: Agonist activity at recombinant human 5HT2AR expressed in CHO-K1 cells incubated for 60 mins by HTRF method; format: functional, cell-based
# [9] = target: T4, Muscarinic acetylcholine receptor M2 (Homo sapiens); test: Antagonist activity at M2 receptor (unknown origin) incubated for 1 hr in presence of acetylcholine by GTPgamma[35S] based Topcount scintillation counting method; format: functional
# [10] = target: 5-hydroxytryptamine receptor 2A (Homo sapiens) (UniProt P28223); test: Displacement of [3H]-DOI from 5HT2AR (unknown origin) by Topcount scintillation counting method
# [11] = target: Muscarinic acetylcholine receptor M3 (Homo sapiens) (UniProt P20309); test: Agonist activity at recombinant human M3 receptor expressed in CHO-K1 cells incubated for 15 mins by aequorin assay; format: functional, cell-based
# [12] = target: Muscarinic acetylcholine receptor M3 (Homo sapiens) (UniProt P20309); test: Antagonist activity at recombinant human M3 receptor expressed in CHO-K1 cells incubated for 15 mins in presence of acetylcholine by aequorin assay; format: functional, cell-based
# [13] = target: T3, Muscarinic acetylcholine receptor M4 (Homo sapiens); test: Displacement of [3H]-Scopolamine from M4 receptor (unknown origin) by Topcount scintillation counting method
# [14] = target: T1, Muscarinic acetylcholine receptor M1 (Homo sapiens); test: Agonist activity at recombinant human M1 receptor expressed in CHO-K1 cells incubated for 15 mins by aequorin assay; format: functional, cell-based
# [15] = target: T3, Muscarinic acetylcholine receptor M4 (Homo sapiens); test: Antagonist activity at M4 receptor (unknown origin) incubated for 1 hr in presence of oxotremorine by GTPgamma[35S] based Topcount scintillation counting method; format: functional
# [16] = target: T5, Muscarinic acetylcholine receptor M5 (Homo sapiens) (UniProt P08912); test: Displacement of [3H]-Scopolamine from M5 receptor (unknown origin) by Topcount scintillation counting method
# T5 sequence (whole entry): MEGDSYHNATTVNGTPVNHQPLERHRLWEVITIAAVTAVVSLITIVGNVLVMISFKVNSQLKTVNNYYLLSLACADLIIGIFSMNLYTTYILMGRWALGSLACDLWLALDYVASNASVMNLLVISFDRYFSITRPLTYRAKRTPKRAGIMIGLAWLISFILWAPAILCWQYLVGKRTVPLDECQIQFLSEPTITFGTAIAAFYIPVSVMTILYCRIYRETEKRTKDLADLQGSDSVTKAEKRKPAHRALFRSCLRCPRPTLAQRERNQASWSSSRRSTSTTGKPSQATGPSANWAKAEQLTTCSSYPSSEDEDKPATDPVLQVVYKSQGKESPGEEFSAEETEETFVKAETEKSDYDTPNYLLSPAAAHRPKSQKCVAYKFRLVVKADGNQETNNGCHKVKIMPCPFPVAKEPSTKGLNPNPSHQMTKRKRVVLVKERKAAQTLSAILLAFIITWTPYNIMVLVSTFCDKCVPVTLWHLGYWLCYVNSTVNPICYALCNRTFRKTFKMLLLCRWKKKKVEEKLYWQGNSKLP
# [17] = target: T5, Muscarinic acetylcholine receptor M5 (Homo sapiens); test: Antagonist activity at recombinant human M5 receptor expressed in CHO-K1 cells incubated for 15 mins in presence of acetylcholine by aequorin assay; format: functional, cell-based
# [18] = target: T4, Muscarinic acetylcholine receptor M2 (Homo sapiens); test: Displacement of [3H]-Scopolamine from M2 receptor (unknown origin) by Topcount scintillation counting method
# [19] = target: 5-hydroxytryptamine receptor 2A (Homo sapiens) (UniProt P28223); test: Antagonist activity at recombinant human 5HT2AR expressed in CHO-K1 cells incubated for 60 mins in presence of alpha-Me-5HT by HTRF method; format: functional, cell-based
# [20] = target: T5, Muscarinic acetylcholine receptor M5 (Homo sapiens); test: Agonist activity at recombinant human M5 receptor expressed in CHO-K1 cells incubated for 15 mins by aequorin assay; format: functional, cell-based
# [21] = target: T1, Muscarinic acetylcholine receptor M1 (Homo sapiens); test: Displacement of [3H]-Scopolamine from M1 receptor (unknown origin) by Topcount scintillation counting method
# [22] = target: T2, 5-hydroxytryptamine receptor 2C (Homo sapiens); test: Displacement of [3H]-DOI from 5HT2CR (unknown origin) by Topcount scintillation counting method
# [23] = target: T2, 5-hydroxytryptamine receptor 2C (Homo sapiens); test: Agonist activity at recombinant human 5HT2CR expressed in CHO-K1 cells incubated for 60 mins by HTRF method; format: functional, cell-based
# [24] = target: Muscarinic acetylcholine receptor M3 (Homo sapiens) (UniProt P20309); test: Displacement of [3H]-Scopolamine from M3 receptor (unknown origin) by Topcount scintillation counting method
# Neuron [25] = test: Cytotoxicity against Wistar rat brain cortical neurons assessed as neurite restriction; format: toxicity, cell-based; settings: dose 0.25-10 µM
# Muscarinic acetylcholine receptor M3 (Homo sapiens), sequence (P20309 whole entry, looked up): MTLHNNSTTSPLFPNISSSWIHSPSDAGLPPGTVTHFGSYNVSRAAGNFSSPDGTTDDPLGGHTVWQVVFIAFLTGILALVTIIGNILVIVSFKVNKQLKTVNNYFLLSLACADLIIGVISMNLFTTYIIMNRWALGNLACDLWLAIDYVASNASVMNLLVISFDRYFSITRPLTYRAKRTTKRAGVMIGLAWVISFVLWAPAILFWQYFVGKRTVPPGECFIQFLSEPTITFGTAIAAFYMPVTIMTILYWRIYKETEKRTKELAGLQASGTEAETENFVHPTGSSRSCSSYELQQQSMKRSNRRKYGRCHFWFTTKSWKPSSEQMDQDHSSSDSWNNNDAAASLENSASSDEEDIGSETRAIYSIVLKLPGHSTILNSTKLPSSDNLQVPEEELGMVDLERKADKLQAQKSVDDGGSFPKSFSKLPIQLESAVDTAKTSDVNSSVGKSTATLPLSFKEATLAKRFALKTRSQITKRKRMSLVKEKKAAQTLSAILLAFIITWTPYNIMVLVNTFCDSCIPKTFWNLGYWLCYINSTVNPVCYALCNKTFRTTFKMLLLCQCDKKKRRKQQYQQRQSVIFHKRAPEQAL
# 5-hydroxytryptamine receptor 2A (Homo sapiens), sequence (P28223 whole entry): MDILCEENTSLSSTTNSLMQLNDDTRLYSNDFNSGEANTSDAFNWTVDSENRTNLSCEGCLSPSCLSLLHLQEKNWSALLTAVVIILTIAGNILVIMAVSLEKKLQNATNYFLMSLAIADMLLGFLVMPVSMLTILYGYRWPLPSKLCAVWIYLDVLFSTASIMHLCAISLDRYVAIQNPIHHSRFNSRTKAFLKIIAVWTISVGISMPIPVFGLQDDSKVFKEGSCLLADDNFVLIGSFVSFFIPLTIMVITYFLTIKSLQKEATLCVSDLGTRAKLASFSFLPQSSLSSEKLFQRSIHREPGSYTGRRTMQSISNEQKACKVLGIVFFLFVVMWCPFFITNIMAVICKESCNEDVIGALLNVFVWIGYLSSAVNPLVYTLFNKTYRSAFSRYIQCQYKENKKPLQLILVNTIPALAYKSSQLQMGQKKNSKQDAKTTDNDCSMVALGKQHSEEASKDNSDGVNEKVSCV
compound,measurement,setting,value
CN1[C@H]2C[C@H](O)C[C@@H]1[C@@H](c1ccccc1)C2,Activity,Neuron [1],inactive
COc1cccc([C@H]2C[C@@H]3CCC[C@H]2N3C)c1,Activity,Neuron [1],Active
same,Activity,[2]; filed as antagonist,Active
COc1cccc(CCN2[C@@H]3CCC[C@H]2CC3)c1,Activity,Neuron [1],Active
CN1[C@H]2C[C@H](OC(=O)c3ccccc3)C[C@@H]1[C@@H](c1ccccc1)C2,Activity,Neuron [1],inactive
same,Activity,[2]; filed as antagonist,Active
COc1ccc([C@H]2C[C@@H]3CCC[C@H]2N3C)cc1,Activity,Neuron [3],Toxic
same,Activity,Neuron [1],inactive
CN1[C@H]2CC[C@@H]1C=C(c1c[nH]c3ccccc13)C2,Activity,Neuron [1],inactive
same,Activity,[4]; filed as antagonist,Active
Fc1ccc(CCN2[C@@H]3CCC[C@H]2CC3)cc1,Activity,Neuron [1],Active
CN1[C@H]2CCC[C@@H]1[C@@H](c1cccc(F)c1)C2,Activity,Neuron [1],Active
same,Activity,[2]; filed as antagonist,Active
c1ccc(CCN2[C@@H]3CCC[C@H]2CC3)cc1,Activity,Neuron [1],Active
CN1[C@@H]2CC[C@H]1C[C@H](OC(=O)/C=C/c1ccccc1)C2,Activity,Neuron [5],Dose-Dependent Effect
COc1ccc2[nH]c3c(c2c1)[C@H]1CC[C@@H](C3)N1C,Activity,Neuron [1],inactive
COc1ccccc1[C@H]1C[C@@H]2CCC[C@H]1N2C,Activity,Neuron [1],inactive
COc1ccc(CN2[C@H]3CC(=O)C[C@@H]2[C@@H](O)C3)cc1,Activity,[6],inactive
same,Activity,[7],inactive
same,Activity,[8],inactive
same,Activity,[9],inactive
same,Activity,[10],inactive
same,Activity,[11],inactive
same,Activity,Neuron [1],Active
same,Activity,[12],inactive
same,Activity,[13],inactive
same,Activity,[4],inactive
same,Activity,[14],inactive
same,Activity,[2],inactive
same,Activity,[15],inactive
same,Activity,[16],inactive
same,Activity,[17],inactive
same,Activity,[18],inactive
same,Activity,[19],inactive
same,Activity,[20],inactive
same,Activity,[21],inactive
same,Activity,[22],inactive
same,Activity,[23],inactive
same,Activity,[24],inactive
CN1[C@@H]2CCC[C@H]1[C@H]1[C@@H]2N1c1ccc2[nH]ccc2c1,Activity,Neuron [1],inactive
CN1[C@H]2C[C@@H](OC(=O)c3ccccc3)C[C@@H]1[C@@H](c1ccccc1)C2,Activity,Neuron [1],Active
same,Activity,[2]; filed as antagonist,Active
CN1[C@@H]2CCC[C@H]1[C@H]1[C@@H]2N1c1ccccc1,Activity,Neuron [1],inactive
CN1[C@H]2CCC[C@@H]1[C@@H](c1ccc(F)cc1)C2,Activity,Neuron [1],inactive
COc1ccc(CCN2[C@@H]3CCC[C@H]2CC3)cc1,Activity,Neuron [3],Toxic
same,Activity,Neuron [1],inactive
CN1[C@@H]2CC[C@H]1C[C@H](OC(=O)c1ccccc1)C2,Activity,Neuron [1],inactive
CN1[C@H]2C[C@@H](O)C[C@@H]1[C@@H](c1ccccc1)C2,Activity,Neuron [1],inactive
O=C1C[C@H]2C[C@H](O)[C@@H](C1)N2CCc1c[nH]c2ccccc12,Activity,Neuron [1],Active
CN1[C@@H]2CCC[C@H]1[C@H]1[C@@H]2N1c1cccc2[nH]ccc12,Activity,Neuron [25],Dose-Dependent Effect
same,Activity,Neuron [1],inactive
CN1[C@H]2CCC[C@@H]1[C@@H](c1ccccc1F)C2,Activity,Neuron [3],Toxic
same,Activity,Neuron [1],inactive
CN1[C@@H]2CCC[C@H]1[C@H]1[C@@H]2N1c1cccnc1,Activity,Neuron [1],inactive
CN1[C@H]2CCC[C@@H]1[C@@H](c1ccccc1)C2,Activity,Neuron [1],inactive
COc1ccccc1CCN1[C@@H]2CCC[C@H]1CC2,Activity,[6]; filed as agonist,Active
same,Activity,[7]; filed as agonist,Active
same,Activity,[8]; filed as agonist,Active
same,Activity,[10]; filed as agonist,Active
same,Activity,[11]; filed as agonist,Active
same,Activity,[14]; filed as agonist,Active
same,Activity,[20]; filed as agonist,Active
same,Activity,[22]; filed as agonist,Active
same,Activity,[23]; filed as agonist,Active
Fc1ccccc1CCN1[C@@H]2CCC[C@H]1CC2,Activity,Neuron [1],Active
